The values that follow come from publication PMC7614687, “Modulation of the substrate specificity of the kinase PDK1 by distinct conformations of the full-length protein*” (Science signaling, 2023).

Molecules are shown by their SMILES.

One assay deals with T1, PDK1 (Homo sapiens, UniProt O15530).
T1 sequence (O15530 1-556): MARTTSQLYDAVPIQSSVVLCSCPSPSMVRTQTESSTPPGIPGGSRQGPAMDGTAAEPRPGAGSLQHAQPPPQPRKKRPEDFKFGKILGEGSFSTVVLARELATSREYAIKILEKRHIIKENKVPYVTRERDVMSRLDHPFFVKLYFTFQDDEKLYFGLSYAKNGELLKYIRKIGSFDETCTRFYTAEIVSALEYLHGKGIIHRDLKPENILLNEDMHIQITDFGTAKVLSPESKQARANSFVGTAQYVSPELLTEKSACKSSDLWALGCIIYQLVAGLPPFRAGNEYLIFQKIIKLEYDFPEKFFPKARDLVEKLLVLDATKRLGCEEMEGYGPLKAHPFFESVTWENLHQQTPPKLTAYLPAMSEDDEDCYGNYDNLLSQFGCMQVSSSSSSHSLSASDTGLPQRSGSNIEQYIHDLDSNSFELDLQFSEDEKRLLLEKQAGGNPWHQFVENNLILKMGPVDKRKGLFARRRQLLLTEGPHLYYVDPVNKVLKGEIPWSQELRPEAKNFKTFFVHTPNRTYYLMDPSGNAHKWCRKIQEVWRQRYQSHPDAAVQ
In words: PDK1 activity assay with T308tide and [γ32P]ATP. Type of assay: biochemical. Further details: made in house; host or cells: HEK293 (GST fusion) or Sf9 insect cells (His form). To be noted: full-length PDK1. As for the experimental part:
The PDK1 activity assay using T308tide as a substrate was performed essentially as previously described ([18], [28], [54]). In brief, the assay was performed in a 20 μl format containing 50 mM Tris pH 7.5, 0.05 mg/ml BSA, 0.1% ß-mercaptoethanol, 10 mM MgCl2, 100 μM [γ^32P]ATP (5-50 cpm/pmol), 0.003% Brij, 150-500 ng PDK1, and T308tide (0.3 mM) at room temperature. The assay was performed in 96 well plated and stopped by the addition of 5 μl of 0.1 % phosphoric acid. 4 μl aliquots were spotted on p81 phosphocellulose papers (Whatmann) using ep motion 5070 (Eppendorf). The phosphocellulose papers were washed in 0.01% phosphoric acid, dried, and exposed using PhosphoImager (FLA-9000 Starion). Data were analyzed with ImageQuant software (Fujifilm). Activity measurements were performed in technical duplicates or triplicates with less than 10% difference between replicates. Experiments were repeated at least twice. The activity measurements of PDK1 towards GS-022 and GS-023 were performed similarly, with the GS-peptides replacing T308tide at the indicated concentrations. GS-022 and GS-023 have features consistent with the loose characteristics disclosed for the peptide Ser/Thr 07, ((R/K)1-3(X)0-2 (S/T) (X)0-2(R/K)1-3, where X is any residue) used by the commercial “PDK1 Direct” assay.

Another assay addresses T2, PDK1_1-556 (Homo sapiens, UniProt O15530).
T2 construct: effect of HYG8 on the thermal stability (ΔTm) of PDK1_1-556 (H) and PDK1_50-359 (I); His (N); made in house; host or cells: Sf9 insect cells (baculovirus)
T2 sequence (O15530 1-556): T1 sequence (O15530 1-556)
The assay is described as follows: PDK1-mediated activation/phosphorylation of Akt and SGK in vitro (cascade format, Western blot). It is filed as biochemical. To be noted: absence of PIP3, HYG8 1 μM. As for the experimental part:
PDK1 activity was also assessed in a cascade format that measures the ability of PDK1 to activate its substrates GST-ΔN-SGK [S422D], GST-Akt [S473D] and GST-Akt ΔPH [S473D], as previously performed ([24], [28]). SGK and Akt proteins mutated at the HM phosphorylation site to Asp can be activated by phosphorylation at the activation loop by PDK1. In brief, we preincubated SGK or Akt (0.5 μg) with 10 ng or 100 ng of PDK1 at room temperature (22°C) in a buffer containing 50 mM Tris pH 7.5, 0.05 mg/ml BSA, 0.1% β-mercaptoethanol, 10 mM MgCl2, 100 μM ATP (20 μl). We measured the activity of SGK or Akt by adding 30 μl buffer containing the polypeptide substrate KK-Crosstide ([…]; 100 μM) and [γ^32P]ATP (100 μM). […]
PDK1 activity was also measured by incubating PDK1 with protein kinase substrates and measuring their phosphorylation by Western blot using phospho-specific antibodies to the activation loop phosphorylation site, essentially as previously performed ([24]), with the modification that the secondary antibodies were fluorescent for improved quantification. […] The basal phosphorylation of substrates was determined in the absence of PDK1, while “maximal” phosphorylation corresponds to the phosphorylation of substrates with excess PDK1 (10 nM PDK1 for Akt/PKB substrates and 1 nM PDK1 for SGK). […] Fluorescent signals were measured using Odyssey Fc (Licor). […]
On the technique in general: In western blotting, separated proteins are transferred to a membrane and probed.

For the compound `O=C(O[C@H]1[C@@H](OP(=O)(O)O)[C@H](OP(=O)(O)O)[C@@H](OP(=O)(O)O)[C@H](OP(=O)(O)O)[C@H]1OP(=O)(O)O)c1ccccc1` [HYG8, 2-O-benzoyl-IP5], the “effect on activity of full-length PDK1 toward T308tide” value at PDK1 was “partially inhibited”. Moreover, at PDK1_1-556, the “activation of Akt and Akt ΔPH by PDK1” value is reported as “selectively inhibited”; the “activation of SGK by PDK1” value is on record as “did not inhibit”.
